Experimental data from patent US20220351806A1, “Biomarker Panels for Guiding Dysregulated Host Response Therapy” (Endpoint Health Inc., priority 2019, published 2022).

Test system: sepsis patients
Test: VANISH trial survival analysis, hydrocortisone vs placebo, by patient subtype classifier
Format: in vivo, human
Set-up: mortality reduction in the placebo group in comparison to the hydrocortisone group / Mortality rate: concentration or dose not given beside the values
Settings: for Alive / Dead / Mortality rate / Survival rate / Mortality Reduction Group: VANISH trial; for Alive / Dead / Mortality rate / Survival rate: Hydro group; for 28-day mortality reduction in the placebo group in comparison to the hydrocortisone group: VANISH; for Mortality Reduction Group: arm with lower mortality, Hydro vs Placebo
Excerpt: The test expression data from each trial were normalized by the platform normalization matrix described above^13 so that the test data were more consistent with the training data. The classifiers (e.g., the Full Model, the SS Model, the S Model, and the P Model) were then applied to the normalized data such that the patients were classified into A, B, and C subtypes. […] Therefore, each sample in the target samples was normalized independently with the normalization matrix of the sample array platform.
Survival and mortality rates were calculated at day 28 because survival and mortality labels at other time points were not available. […] Binomial and Chi-squared with continuity correction tests were used to test for the significance of these differences.
In one example, previously identified subtypes of sepsis patients were used to tune the model to identify these type A and B patients. Two distinct sepsis response signatures (SRS1 and SRS2) were identified in five public studies (E-MTAB-4421, E-MTAB-4451, E-MTAB-5273, E-MTAB-5274, and E-MTAB-7581), where HumanHT-12 v4 BeadChip were used to generate the gene expression profiles of the patient samples. The processed data of those five studies were downloaded and processed using R programming language and software environment for statistical analysis (version 3.6.3). The Bioconductor annotation package, illuminaHumanv4.db (version 1.26.0), was used to annotate microarray probes and expression levels of genes were determined by each individual probe or mean of probes belonging to the same gene. In order to remove cohort biases, the Bioconductor package, limma (version 3.42.2), was used to remove batch effects. Using ss.b2 panel genes, subtype A, B, and C scores were calculated by geometric mean of up/down genes.
To build the classifier, we defined E-MTAB-4421, E-MTAB-4451, E-MTAB-5273, and E-MTAB-5274 as the training dataset and VANISH (E-MTAB-7581) as the testing dataset. We used features (subtype A, B, and C scores) and class labels (SRS1 vs SRS2) in the training dataset to build a machine-learned classifier based on support-vector machine (SVM) method. SVM is a supervised machine learning method for classification analysis. The algorithm finds a single or a set of hyperplanes that maximize the margin among subtype A, B, and C scores. In order to capture non-linear data, the kernel function was used. R package e1071 was used to build the SVM classifier with following parameters: method=“C-classification”, kernal=“radial”, gamma=0.1, and cost=10.
The accuracy of the classifiers was evaluated by Leave-One-Out (LOO) cross-validation over the training dataset. Also the classifier was applied to 117 controlled samples from VANISH trial.
In addition to the SVM-method, thresholds can be employed to scores in order to define A vs. B labels. […] Therefore we applied a heuristic threshold (threshold=0) to subtype A and B scores to classify SRS1-like and SRS2-like in VANISH: SRS2-like label was assigned to samples with subtype A score >0 and subtype B score <0 and SRS1-like label was assigned to the rest of samples.
Besides the heuristic threshold, we also derived the thresholds for subtype A and B scores using the training dataset. Same as the SVM method, we defined E-MTAB-4421, E-MTAB-4451, E-MTAB-5273, and E-MTAB-5274 as the training dataset and VANISH (E-MTAB-7581) as the testing dataset.

[1] = day 28, Full Model, subtypes CA
[2] = day 28, SS.B2 Model (SVM), Total
[3] = day 28, SS.B2 Model (SVM), type A (SRS2-like)
[4] = day 28, SS.B2 Model (SVM), type B (SRS1-like)

Q: With `C[C@]12CCC(=O)C=C1CC[C@@H]1[C@@H]2[C@@H](O)C[C@@]2(C)[C@H]1CC[C@]2(O)C(=O)CO` [Hydro, hydrocortisone] as the compound, how does the Alive (day 28, Full Model, subtype C) read?
A: 11

Q: What about the Dead (day 28, Full Model, subtype C) of the same compound?
A: 8

Q: What about the Mortality rate (day 28, Full Model, subtype C) of the same compound?
A: 42.1%

Q: And the Survival rate (day 28, Full Model, subtype C)?
A: 57.9%

Q: And the Alive [1]?
A: 20

Q: And the Dead [1]?
A: 16

Q: And the Mortality rate [1]?
A: 44.4%

Q: What about the Survival rate [1] of the same compound?
A: 55.6%

Q: And the Alive (day 28, P Model, Total)?
A: 36

Q: And the Dead (day 28, P Model, Total)?
A: 22

Q: What about the Mortality rate (day 28, P Model, Total) of the same compound?
A: 37.9%

Q: What about the Survival rate (day 28, P Model, Total) of the same compound?
A: 62.1%

Q: What about the Alive (day 28, P Model, subtype A) of the same compound?
A: 9

Q: What about the Dead (day 28, P Model, subtype A) of the same compound?
A: 10

Q: What about the Mortality rate (day 28, P Model, subtype A) of the same compound?
A: 52.6%

Q: And the Survival rate (day 28, P Model, subtype A)?
A: 47.4%

Q: What about the Alive (day 28, P Model, subtype B) of the same compound?
A: 23

Q: What about the Dead (day 28, P Model, subtype B) of the same compound?
A: 8

Q: And the Mortality rate (day 28, P Model, subtype B)?
A: 25.8%

Q: What about the Survival rate (day 28, P Model, subtype B) of the same compound?
A: 74.2%

Q: What about the Alive (day 28, P Model, subtype C) of the same compound?
A: 4

Q: What about the Dead (day 28, P Model, subtype C) of the same compound?
A: 4

Q: And the Mortality rate (day 28, P Model, subtype C)?
A: 50.0%

Q: And the Survival rate (day 28, P Model, subtype C)?
A: 50.0%

Q: What about the Alive (day 28, P Model, subtypes CA) of the same compound?
A: 13

Q: And the Dead (day 28, P Model, subtypes CA)?
A: 14

Q: And the Mortality rate (day 28, P Model, subtypes CA)?
A: 51.9%

Q: And the Survival rate (day 28, P Model, subtypes CA)?
A: 48.1%

Q: What about the Alive (day 28, S Model, Total) of the same compound?
A: 20

Q: What about the Dead (day 28, S Model, Total) of the same compound?
A: 13

Q: What about the Mortality rate (day 28, S Model, Total) of the same compound?
A: 39.4%

Q: And the Survival rate (day 28, S Model, Total)?
A: 60.6%

Q: What about the Alive (day 28, S Model, subtype A) of the same compound?
A: 16

Q: What about the Dead (day 28, S Model, subtype A) of the same compound?
A: 9

Q: What about the Mortality rate (day 28, S Model, subtype A) of the same compound?
A: 36.0%

Q: What about the Survival rate (day 28, S Model, subtype A) of the same compound?
A: 64.0%

Q: And the Alive (day 28, S Model, subtype B)?
A: 12

Q: What about the Dead (day 28, S Model, subtype B) of the same compound?
A: 9

Q: And the Mortality rate (day 28, S Model, subtype B)?
A: 42.9%

Q: What about the Survival rate (day 28, S Model, subtype B) of the same compound?
A: 57.1%

Q: What about the Alive (day 28, S Model, subtype C) of the same compound?
A: 8

Q: What about the Dead (day 28, S Model, subtype C) of the same compound?
A: 4

Q: What about the Survival rate (day 28, S Model, subtype C) of the same compound?
A: 66.7%

Q: What about the Alive (day 28, S Model, subtypes CA) of the same compound?
A: 8

Q: And the Dead (day 28, S Model, subtypes CA)?
A: 4

Q: And the Survival rate (day 28, S Model, subtypes CA)?
A: 66.7%

Q: What about the Alive (day 28, SS Model, Total) of the same compound?
A: 36

Q: What about the Dead (day 28, SS Model, Total) of the same compound?
A: 22

Q: What about the Mortality rate (day 28, SS Model, Total) of the same compound?
A: 37.9%

Q: What about the Survival rate (day 28, SS Model, Total) of the same compound?
A: 62.1%

Q: What about the Alive (day 28, SS Model, subtype A) of the same compound?
A: 15

Q: What about the Dead (day 28, SS Model, subtype A) of the same compound?
A: 9

Q: And the Mortality rate (day 28, SS Model, subtype A)?
A: 37.5%

Q: What about the Survival rate (day 28, SS Model, subtype A) of the same compound?
A: 62.5%

Q: And the Alive (day 28, SS Model, subtype B)?
A: 5

Q: And the Dead (day 28, SS Model, subtype B)?
A: 5

Q: And the Mortality rate (day 28, SS Model, subtype B)?
A: 50.0%

Q: What about the Survival rate (day 28, SS Model, subtype B) of the same compound?
A: 50.0%

Q: What about the Alive (day 28, SS Model, subtype C) of the same compound?
A: 16

Q: What about the Dead (day 28, SS Model, subtype C) of the same compound?
A: 8

Q: And the Survival rate (day 28, SS Model, subtype C)?
A: 66.7%

Q: And the Alive (day 28, SS Model, subtypes CA)?
A: 31

Q: What about the Dead (day 28, SS Model, subtypes CA) of the same compound?
A: 17

Q: And the Survival rate (day 28, SS Model, subtypes CA)?
A: 64.6%

Q: And the Alive [2]?
A: 36

Q: What about the Dead [2] of the same compound?
A: 22

Q: What about the Mortality rate [2] of the same compound?
A: 37.9%

Q: And the Survival rate [2]?
A: 62.1%

Q: What about the Alive [3] of the same compound?
A: 22

Q: What about the Dead [3] of the same compound?
A: 14

Q: And the Mortality rate [3]?
A: 38.9%

Q: And the Survival rate [3]?
A: 61.1%

Q: What about the Alive [4] of the same compound?
A: 14

Q: What about the Dead [4] of the same compound?
A: 8

Q: What about the Mortality rate [4] of the same compound?
A: 36.4%

Q: And the Survival rate [4]?
A: 63.6%

Q: What about the “28-day mortality reduction in the placebo group in comparison to the hydrocortisone group” value (SRS2-like patients by ROC-derived thresholds (A threshold=-0.2664, B threshold=0.3179)) of the same compound?
A: 81.7%

Q: What about the “28-day mortality reduction in the placebo group in comparison to the hydrocortisone group” value (SRS2-like patients by heuristic threshold=0 (A score >0, B score <0)) of the same compound?
A: 85.2%

Q: And the “Mortality Reduction Group” value (day 28, Full Model, Total)?
A: Placebo

Q: And the “Mortality Reduction Group” value (day 28, Full Model, subtype A)?
A: Placebo

Q: And the “Mortality Reduction Group” value (day 28, Full Model, subtype B)?
A: Hydro

Q: What about the “Mortality Reduction Group” value (day 28, Full Model, subtype C) of the same compound?
A: Placebo

Q: What about the “Mortality Reduction Group” value [1] of the same compound?
A: Placebo

Q: And the “Mortality Reduction Group” value (day 28, P Model, Total)?
A: Placebo

Q: What about the “Mortality Reduction Group” value (day 28, P Model, subtype A) of the same compound?
A: Placebo

Q: And the “Mortality Reduction Group” value (day 28, P Model, subtype B)?
A: Hydro

Q: What about the “Mortality Reduction Group” value (day 28, P Model, subtype C) of the same compound?
A: Placebo

Q: And the “Mortality Reduction Group” value (day 28, P Model, subtypes CA)?
A: Placebo

Q: And the “Mortality Reduction Group” value (day 28, SS Model, Total)?
A: Placebo

Q: And the “Mortality Reduction Group” value (day 28, SS Model, subtype A)?
A: Placebo

Q: And the “Mortality Reduction Group” value (day 28, SS Model, subtype B)?
A: Placebo

Q: And the “Mortality Reduction Group” value (day 28, SS Model, subtype C)?
A: Placebo

Q: What about the “Mortality Reduction Group” value (day 28, SS Model, subtypes CA) of the same compound?
A: Placebo

Q: And the “Mortality Reduction Group” value [2]?
A: Placebo

Q: And the “Mortality Reduction Group” value [3]?
A: Placebo

Q: And the “Mortality Reduction Group” value [4]?
A: Hydro

Q: What about the “lower mortality in the placebo group when compared to the hydrocortisone therapy group” value (sepsis patients, 28-day, subtype A, Full Model) of the same compound?
A: 64.6%

Q: What about the “lower mortality in the placebo group when compared to the hydrocortisone therapy group” value (sepsis patients, 28-day, subtype A, P Model) of the same compound?
A: 77.6%

Q: And the “lower mortality in the placebo group when compared to the hydrocortisone therapy group” value (sepsis patients, 28-day, subtype A, S Model)?
A: 86.1%

Q: What about the “lower mortality in the placebo group when compared to the hydrocortisone therapy group” value (sepsis patients, 28-day, subtype A, SS Model) of the same compound?
A: 86.0%

Q: And the “lower mortality in the hydrocortisone group when compared to the placebo group” value (sepsis patients, 28-day, subtype B, Full Model)?
A: 35.2%

Q: What about the “lower mortality in the placebo group when compared to the hydrocortisone therapy group” value (sepsis patients, 28-day, subtype C, Full Model) of the same compound?
A: 56.8%
